Reference: ChEMBL document CHEMBL1146159, “Design, synthesis, and preliminary biological evaluation of novel ethyl 1-(2'-hydroxy-3'-aroxypropyl)-3-aryl-1H-pyrazole-5-carboxylate” (Bioorg Med Chem Lett, 2006)
Calls of active or inactive are those of the source. No cut-off for these calls is given here.

Tests used:
Assay type in all cases: functional, cell-based
A549 [1] = test: Growth inhibition in A549 cells after 48 hrs by MTT assay; settings: Homo sapiens, A549, 48 h
A549 [2] = test: Growth inhibition in A549 cells at 50 uM by MTT assay; settings: Homo sapiens
A549 [3] = test: Growth inhibition in A549 cells at 100 uM by MTT assay; settings: Homo sapiens
A549 [4] = test: Growth inhibition in A549 cells at 25 uM after 24 hrs by MTT assay; settings: Homo sapiens
A549 [5] = test: Growth inhibition in A549 cells at 25 uM after 48 hrs by MTT assay; settings: Homo sapiens
A549 [6] = test: Growth inhibition in A549 cells at 12.5 uM after 48 hrs by MTT assay; settings: Homo sapiens
A549 [7] = test: Effect on cell morphology in A549 cells assessed as induction of differentiation at 50 uM; settings: Homo sapiens
A549 [8] = test: Effect on cell morphology in A549 cells assessed as induction of cellular vacuolation; settings: Homo sapiens

SMILES	IC50 (A549 [1])	Activity (A549 [2])	Activity (A549 [3])	Activity (A549 [4])	Activity (A549 [5])	Activity (A549 [6])	Activity (A549 [7])	Activity (A549 [8])
CCOC(=O)c1cc(-c2ccc(OC)cc2)nn1CC(O)COc1ccccc1[N+](=O)[O-] (stereo unspecified)	45 µM	Active	Active					
CCOC(=O)c1cc(-c2ccc(Cl)cc2)nn1CC(O)COc1ccc([N+](=O)[O-])cc1 (stereo unspecified)	45 µM	Active	Active	Active	inactive	Active		
CCOC(=O)c1cc(-c2ccc(OC)cc2)nn1CC(O)COc1ccccc1 (stereo unspecified)	33 µM	Active	Active		Active			
CCOC(=O)c1cc(-c2ccc(Cl)cc2)nn1CC(O)COc1ccccc1 (stereo unspecified)	27 µM	Active	Active	Active	inactive	Active	Active	
CCOC(=O)c1cc(-c2ccccc2)nn1CC(O)COc1ccccc1OC (stereo unspecified)	58 µM	Active	Active	Active	inactive			
CCOC(=O)c1cc(-c2ccc(Cl)cc2)nn1CC(O)COc1ccc(Cl)cc1 (stereo unspecified)	33 µM	Active	Active		Active			Active
CCOC(=O)c1cc(-c2ccc(OC)cc2)nn1CC(O)COc1ccccc1OC (stereo unspecified)	68 µM	Active	Active					
CCOC(=O)c1cc(-c2ccccc2)nn1CC(O)COc1ccccc1[N+](=O)[O-] (stereo unspecified)	30 µM	Active	Active	Active	inactive			
CCOC(=O)c1cc(-c2ccc(OC)cc2)nn1CC(O)COc1ccc(Cl)cc1 (stereo unspecified)	38 µM	Active	Active					
CCOC(=O)c1cc(-c2ccccc2)nn1CC(O)COc1ccc(Cl)cc1 (stereo unspecified)	59 µM	Active	Active					
CCOC(=O)c1cc(-c2ccc(Cl)cc2)nn1CC(O)COc1ccccc1OC (stereo unspecified)	32 µM	Active	Active		Active			
CCOC(=O)c1cc(-c2ccc(OC)cc2)nn1CC(O)COc1ccc([N+](=O)[O-])cc1 (stereo unspecified)	44 µM	Active	Active					
CCOC(=O)c1cc(-c2ccccc2)nn1CC(O)COc1ccccc1 (stereo unspecified)	65 µM	Active	Active		Active			
CCOC(=O)c1cc(-c2ccccc2)nn1CC(O)COc1ccc([N+](=O)[O-])cc1 (stereo unspecified)	48 µM	Active	Active	Active	inactive			
CCOC(=O)c1cc(-c2ccc(Cl)cc2)nn1CC(O)COc1ccccc1[N+](=O)[O-] (stereo unspecified)	26 µM	Active	Active	Active	inactive	Active		
